Assay results as given in patent publication US12365643B2, “Phenoxy carboxylic acid compounds and medical uses thereof” (QINGDAO RISING BIOTECHNOLOGY CO., LTD, priority 2018, dated 2025).

Columns and labels:
phosphorylated IRS-1 = assay: Phosphorylated IRS-1 level by Western blotting in HepG2; format: cell-based, human; conditions: 1 μM, 24 hours, HepG2, Western blotting (FIG. 6C)
From the text: (§1) Carnitine palmitoyltransferase (CPT1α) is a rate-limiting enzyme of fatty acid oxidation. When the body or tissues are lacking in energy, CPT1α catalyzes the entry of fatty acids into mitochondria for […], and at the same time, CPT1α is also involved in the regulation of fatty acid-induced insulin resistance and inflammation. Protein kinase B/glycogen synthase kinase 3β (AKT/GSK3β) signaling pathway and insulin receptor substrate 1 (IRS-1) are key signaling pathways that regulate glucose metabolism in response to insulin signal. Therefore, by determining the effects of compounds on the CPT1α protein level and the AKT, GSK3β and IRS-1 protein phosphorylation levels, it is possible to evaluate the regulatory effects of the compounds on glycolipid metabolism.
(§2) After human liver cancer cells HepG2 were incubated with the compound of the present application or the control drug at 1 μM for 24 hours, the CPT1α protein level and the AKT, GSK3β and IRS-1 phosphorylated protein levels in the cells were determined by Western blotting; after gray-scale scanning by using Image J15.0.1, normalization was performed by using β-tubulin protein level as internal control, and the quantitative analysis results were shown in FIG. 6.

phosphorylated GSK3β = assay: Phosphorylated GSK3β level by Western blotting in HepG2; format: cell-based, human; conditions: 1 μM, 24 hours, HepG2, Western blotting (FIG. 6B)
From the text: as §1, §2

ACOX1 = ACOX1 mRNA expression by real-time quantitative PCR in HepG2; format: cell-based, human; conditions: 1 μM, 6 hours, HepG2 (FIG. 5D)
From the text: (§3) Peroxisome proliferation factor activated receptor (PPAR) is an important nuclear receptor that regulates glycolipid metabolism, including three subtypes: α, β/δ and γ. Peroxisome proliferator-activated receptor γ coactivator 1α (PGC-1α) is its auxiliary transcriptional activator. Acyl-CoA oxidase 1 (ACOX1) is the first rate-limiting enzyme for fatty acid β oxidation. Fatty acid binding protein 1 (FABP1) is highly expressed in liver, and can bind fatty acid, heme and other molecules to reduce their toxicity and damage. Up-regulating the expression level of these genes helps to improve the body's metabolism, and their agonists are an important class of anti-metabolic drugs. After the compound of the present application (1 μM) and the control drug gemfibrozil (1 μM) were incubated with human liver cancer cells HepG2 for 6 hours, real-time fluorescent quantitative PCR method was used to determine the relative expression of mRNA of related genes in the cells.
(§4) The company which synthesized the primers was Suzhou Hongxun Biotechnology Co., Ltd. Tranzol reagent (Tranzol total RNA extraction reagent, TransGen Biotech) was used to extract total RNA from tissues. 5× All-In-One RT MasterMix reverse transcription kit (Abcam, USA) and real-time quantitative PCR Master Mix (Aidlab Biotechnologies Co., Ltd) were used. Bio-Rad CFX Connect™ Real-Time PCR Detection System for qPCR was used, and 2^−ΔΔCT method was used for data analysis. The expression level of mRNA in the normal control group was set to 1, and the relative expression level of mRNA in the administration group was calculated, so as to confirm whether the active compound affected the PPAR pathway, thereby further regulating lipid metabolism.

[1] = tested on: RAW264.7 mouse macrophages; assay: Determination of NO generation induced by LPS; format: cell-based; conditions: 10 μM, 1 μg/mL LPS, 24 hours, RAW264.7 (FIG. 2)
Procedure: The results are expressed as the multiple of the NO content in the cell culture supernatant of the administration group (10 μM) as compared with that in the cell culture supernatant of the control group (DMSO group), in which compared with the control group, *P<0.05, **P<0.01, ***P<0.001.
NO is a reactive nitrogen species (RNS) and an important gas signal molecule. Macrophages could convert arginine into NO which participated in the body's inflammatory response. Therefore, determination of inhibitory activity of a drug on NO generation was one of the classic methods to evaluate drug's anti-inflammatory ability. RAW264.7 cells at exponential growth phase were inoculated into a 96-well plate at 1×10^4 cells/200 μL. well of medium. After adherence, the medium was discarded, and the cells were subjected to drug treatments. Normal group (serum-free medium), LPS model group (serum-free medium containing 1 μg/mL LPS), LPS+drug group (serum-free medium containing 1 μg/mL LPS, 10 μM gemfibrozil or the compound of the present application) were established, and 3 repeated wells were set for each group. After 24 hours incubation in incubator, cell supernatant of each well was collected and assay was performed according to the instructions of NO determination kit (Nanjing Jiancheng). The absorbance value of each well at wavelength of 540 nm was read and NO content was calculated.

CPT1α = CPT1α protein level by Western blotting in HepG2; format: cell-based, human; conditions: 1 μM, 24 hours, HepG2, Western blotting (FIG. 6A)
From the text: as §1, §2

NF-κB = NF-κB luciferase reporter gene transcriptional activity in SW480 cells; format: cell-based, human; conditions: 50 μM, 6 hours, SW480 stably transfected (FIG. 3)
Procedure: (§5) NF-κB was the most important inflammatory signal pathway. SW480 human colon cancer cells stably transfected with a luciferase reporter gene driven by NF-κB were used to determine the effects of the compound of the present application and the control drug gemfibrozil on NF-κB transcriptional activity, which comprised the following steps. • (1) Cells stably transfected with NF-κB Luc were cultivated to exponential growth, inoculated at a culture medium concentration of 1×10^5/[…] in a 24-well plate, and cultured for 24 hours, the medium was discarded, and the test compound or gemfibrozil formulated with serum-free medium at 50 μM were added to the 24-well plate and incubation was continued for 6 hours. After washing once with 200 μL of PBS, 100 μL of reporter gene cell lysis buffer was added, the cells were lysed on ice for 10 minutes, and the cell lysate was collected by pipetting. • (2) After centrifugation was performed at 8000 rpm and 4° C. for 10 min, the supernatant was pipetted for fluorescence assay. • (3) The measurement gap time of chemiluminescence analyzer was set to 2 s and the measurement time was set to 10 s. Automatic sample injection was adopted, 50 μL of luciferase assay reagent was added to each well. The reporter gene cell lysis buffer was used as a blank control. • (4) After centrifugation, the supernatant was taken, and the BCA method was used to determine the protein concentration so as to normalize the reporter gene results.

[2] = tested on: antioxidant response element (ARE); assay: ARE luciferase reporter gene activity in HepG2 cells; format: cell-based, human; conditions: 50 μM, HepG2 stably transfected (FIG. 4)
Procedure: as §5
In this experimental example, the luciferase activity in HepG2 human liver cancer cells stably transfected with a luciferase reporter gene driven by antioxidant response element (ARE) was determined to evaluate the regulatory effects of the compound of the present application and gemfibrozil on the transcriptional activity of transcription factor Nrf2 and the cellular oxidative stress response signals, in which the operation process of the reporter gene assay was the same as that of Experimental Example 2.2.

PGC1α = PGC1α mRNA expression by real-time quantitative PCR in HepG2; format: cell-based, human; conditions: 1 μM, 6 hours, HepG2 (FIG. 5C)
From the text: as §3, §4

PPARγ = PPARγ mRNA expression by real-time quantitative PCR in HepG2; format: cell-based, human; conditions: 1 μM, 6 hours, HepG2 (FIG. 5B)
From the text: as §3, §4

Cc1cc(Br)c(C)c(Br)c1OCCCC(C)(C)C(=O)O [BJMU-109, 5-(2,4-dibromo-3,6-dimethylphenoxy)-2,2-dimethylpentanoic acid]
phosphorylation level of IRS-1 (phosphorylated IRS-1): significantly increased the phosphorylation level of IRS-1 | phosphorylation level of GSK3β (phosphorylated GSK3β): significantly increased the phosphorylation level of GSK3β | ACOX1 mRNA expression (ACOX1): significantly induced ACOX1 mRNA expression | NO generation induced by LPS [1]: could inhibit NO generation

Cc1cc(F)c(C)c(OCCCC(C)(C)C(=O)O)c1 [BJMU-213, 5-(3-fluoro-2,5-dimethylphenoxy)-2,2-dimethylpentanoic acid]
phosphorylation level of IRS-1 (phosphorylated IRS-1): significantly increased the phosphorylation level of IRS-1 | phosphorylation level of GSK3β (phosphorylated GSK3β): significantly increased the phosphorylation level of GSK3β | CPT1α protein level (CPT1α): significantly increased CPT1α protein level

Cc1ccc(C)c(OCCCC(C)(C)C(=O)O)c1Br [BJMU-404, 5-(2-bromo-3,6-dimethylphenoxy)-2,2-dimethylpentanoic acid]
phosphorylation level of IRS-1 (phosphorylated IRS-1): significantly increased the phosphorylation level of IRS-1 | phosphorylation level of GSK3β (phosphorylated GSK3β): significantly increased the phosphorylation level of GSK3β | CPT1α protein level (CPT1α): significantly increased CPT1α protein level | ACOX1 mRNA expression (ACOX1): significantly induced ACOX1 mRNA expression | activity of NF-κB reporter gene (NF-κB): could significantly inhibit the activity of NF-κB reporter gene | ARE reporter gene activity [2]: could significantly activate the ARE reporter gene activity

Cc1cc(Br)c(C)c(C)c1OCCCC(C)(C)C(=O)O [BJMU-409, 5-(4-bromo-2,3,6-trimethylphenoxy)-2,2-dimethylpentanoic acid]
phosphorylation level of IRS-1 (phosphorylated IRS-1): significantly increased the phosphorylation level of IRS-1 | phosphorylation level of GSK3β (phosphorylated GSK3β): significantly increased the phosphorylation level of GSK3β | CPT1α protein level (CPT1α): significantly increased CPT1α protein level | ACOX1 mRNA expression (ACOX1): significantly induced ACOX1 mRNA expression | PGC1α mRNA expression (PGC1α): significantly induced PGC1α mRNA expression | ARE reporter gene activity [2]: could significantly activate the ARE reporter gene activity

Cc1cc(OCCCC(C)(C)C(=O)O)c(CO)cc1Br [BJMU-502, 5-(4-bromo-2-(hydroxymethyl)-5-methylphenoxy)-2,2-dimethylpentanoic acid]
phosphorylation level of IRS-1 (phosphorylated IRS-1): significantly increased the phosphorylation level of IRS-1 | CPT1α protein level (CPT1α): significantly increased CPT1α protein level | ACOX1 mRNA expression (ACOX1): significantly induced ACOX1 mRNA expression | NO generation induced by LPS [1]: could inhibit NO generation | PGC1α mRNA expression (PGC1α): significantly induced PGC1α mRNA expression | PPARγ mRNA expression (PPARγ): significantly induced PPARγ mRNA expression | ARE reporter gene activity [2]: could significantly activate the ARE reporter gene activity
